In PMC2731040 (BMC Clinical Pharmacology, 2009):

Key:
[1] = humans; cited from earlier work
[2] = system: nondependent cocaine-experienced subjects; assay: Physiologic measures during cocaine challenge sessions; type: in vivo, human; settings: for Systolic Blood Pressure, Peak change: Mean ± SD, 12 subjects
Method: Heart rate, systolic and diastolic blood pressure were measured using a cardiovascular monitor (Dinamap by Critikon, Vital Signs Monitor 1846 SX). Rate pressure product was calculated as the product of systolic blood pressure and heart rate. Respiration rate was measured by counting the number of inhalations per minute. These vital signs were determined with the patient in a supine position for at least 10 minutes.
Heart rate, blood pressure, respiration rate, skin and core temperature were recorded at specific times during the study. During infusions, measures were obtained pre-dose and at 0.17, 0.5, 0.75, 1, 1.5, 2, 2.5, 3, 3.5, 4, 4.25, 4.5, 5, 6, 8, 12, 18, 24, 36, 48, and 72 hours after dosing. The electrocardiogram was monitored continuously during the infusion and for 4 hours after the termination of the intravenous cocaine infusion. EKG tracings were recorded at each data collection point.
(§1) The time courses of physiologic and subjective data were analyzed by repeated measures analysis of variance (ANOVA). Treatment conditions (Sessions 1 and 2) and observation times (hours post-dose) were considered within-subject factors. Change scores (post-dose minus pre-dose values) were used in most analyses. Raw score were used where indicated. After a significant F test, pairwise comparisons of treatment conditions were performed using the least squares means analysis. Peak effects within a session were determined for each subject and each variable and analyzed using a one-factor repeated measures ANOVA. Effects were considered statistically significant at p = 0.05. Data were adjusted for sphericity using the Huynh-Feldt adjustment factor. Huynh-Feldt-corrected significance values are reported.

[3] = system: nondependent cocaine-experienced subjects; assay: Subjective measures (verbal ratings, visual analog scales, POMS) during cocaine challenge sessions; type: in vivo, human; settings: for Cocaine Craving (0–100), Peak change / Global Intoxication (0–100), Peak change: verbal rating; for Bad Drug Effect (0–100), Peak change / Good Drug Effect (0–100), Peak change: visual analog scale
Description: Verbal ratings of global intoxication and craving (on a scale of 0 to 100) were obtained at the same time points as the physiologic measures, with 0 representing no drug effect and 100 representing the highest level of intoxication or craving.
Visual analog scales were used to rate the degree of drug liking by moving an arrow along a 10 cm line marked at opposite ends as 0 (not at all) and 100 (extreme) using a hand-held computer (Tandy 102). Items rated on the visual analog scale included "good drug effect" and "bad drug effect," and were obtained prior to cocaine infusion and at 0.17, 0.5, 0.75, 1, 1.5, 2, 2.5, 3, 3.5, 4, 4.25, 4.5, 5, 6, and 8 hours after dosing.
The Profile of Mood States (POMS) assessed mood changes in Anger, Confusion, Fatigue, Tension, and Vigor on a scale from 0 to 4, where 0 indicated "no effect" and 4 indicates "extremely strong". Ratings were obtained prior to cocaine infusion and at 1, 3, and 6 hours after dosing.
as §1

dopaminergic tone = assay: Serum prolactin and plasma HVA (surrogate markers of dopaminergic tone); type: in vivo, human; settings: both challenge sessions; change within each session not significant
Description: The interactions between MAO-A inhibitors and cocaine administered are largely unexplored. […] Therefore, measurement of dopaminergic and noradrenergic tone may be important in predicting toxic events. We measured dopaminergic tone with the surrogate marker of plasma HVA, the major brain metabolite of dopamine, and serum levels of prolactin, a hormone whose secretion is inhibited by dopamine. The surrogate for noradrenergic tone was urine concentrations of MHPG-S. In order to assess the degree of MAO-A and MAO-B inhibition, we assayed concentrations of a substrate of MAO-B, phenylethylamine (PEA). PEA would be expected to increase with MAO-B inhibition, and concentrations of MHPG-S, which is a metabolite of norepinephrine produced by MAO-A primarily in the brain [20], would be expected to decrease.

[4] = Session 1: first cocaine infusion, before selegiline
[5] = Session 2: second cocaine infusion, after one week of selegiline STS
[6] = both cocaine challenge sessions, p < 0.01

Structure (SMILES): COC(=O)[C@H]1[C@@H](OC(=O)c2ccccc2)C[C@@H]2CC[C@H]1N2C [Cocaine, cocaine]
- half life of acute pharmacokinetic and dynamic effects [1]: about 1 hour
- Core Temperature, Peak Time [2, 4]: 4.5 ± 1.6 Hr Postdose
- Core Temperature, Peak change [2, 4]: 0.7 ± 0.2 °C
- Diastolic Blood Pressure, Peak Time [2, 4]: 2.8 ± 2.4 Hr Postdose
- Diastolic Blood Pressure, Peak change [2, 4]: 10 ± 5 mmHg
- Heart Rate, Peak Time [2, 4]: 0.8 ± 0.9 Hr Postdose
- Heart Rate, Peak change [2, 4]: 26 ± 10 beats/min
- Rate Pressure Product, Peak Time [2, 4]: 1.4 ± 1.5 Hr Postdose
- Rate Pressure Product, Peak change [2, 4]: 4224 ± 1638 SBP*HR
- Respiration Rate, Peak Time [2, 4]: 0.9 ± 1.3 Hr Postdose
- Respiration Rate, Peak change [2, 4]: 3.8 ± 4.0 inhal/min
- Skin Temperature, Peak Time [2, 4]: 0.8 ± 0.4 Hr Postdose
- Skin Temperature, Peak change [2, 4]: -5.4 ± 2.7 °C
- Systolic Blood Pressure, Peak Time [2, 4]: 2.2 ± 1.9 Hr Postdose
- Systolic Blood Pressure, Peak change ([2]; Session 1: first cocaine infusion, day 1, before selegiline): 17 ± 8 mmHg
- Core Temperature, Peak Time [2, 5]: 4.2 ± 1.9 Hr Postdose
- Core Temperature, Peak change [2, 5]: 0.7 ± 0.5 °C
- Diastolic Blood Pressure, Peak Time [2, 5]: 2 ± 2 Hr Postdose
- Diastolic Blood Pressure, Peak change [2, 5]: 12 ± 6 mmHg
- Heart Rate, Peak Time [2, 5]: 0.9 ± 1.7 Hr Postdose
- Heart Rate, Peak change [2, 5]: 27 ± 12 beats/min
- Rate Pressure Product, Peak Time [2, 5]: 0.9 ± 1.6 Hr Postdose
- Rate Pressure Product, Peak change [2, 5]: 4437 ± 2333 SBP*HR
- Respiration Rate, Peak Time [2, 5]: 0.4 ± 0.3 Hr Postdose
- Respiration Rate, Peak change [2, 5]: 3.8 ± 3.6 inhal/min
- Skin Temperature, Peak Time [2, 5]: 1.0 ± 1.2 Hr Postdose
- Skin Temperature, Peak change [2, 5]: -5 ± 3.2 °C
- Systolic Blood Pressure, Peak Time [2, 5]: 1.9 ± 1.7 Hr Postdose
- Systolic Blood Pressure, Peak change ([2]; Session 2: second cocaine infusion, day 11, after one week of selegiline STS patch 6 mg/24 hours): 17 ± 9 mmHg
- Skin temperature compared to baseline [2, 6]: decreased significantly
- Systolic blood pressure, heart rate, and rate pressure product compared to baseline [2, 6]: increased significantly
- Diastolic blood pressure, respiration rate, and core temperature ([2]; cocaine either alone or with selegiline): did not alter
- Bad Drug Effect, Peak Time [3, 4]: 1.9 ± 2.3 Hr Postdose
- Cocaine Craving, Peak Time [3, 4]: 1.1 ± 1.3 Hr Postdose
- Global Intoxication, Peak Time [3, 4]: 0.7 ± 1 Hr Postdose
- Good Drug Effect, Peak Time [3, 4]: 0.9 ± 1.5 Hr Postdose
- POMS Anger (0–28), Peak change [3, 4]: 2.8 ± 6.4
- POMS Anger, Peak Time [3, 4]: 6 ± 0 Hr Postdose
- POMS Confusion (0–20), Peak change [3, 4]: 2.5 ± 2.8
- POMS Confusion, Peak Time [3, 4]: 6 ± 0 Hr Postdose
- POMS Depression (0–64), Peak change [3, 4]: 3 ± 6.5
- POMS Depression, Peak Time [3, 4]: 3 ± 0 Hr Postdose
- POMS Fatigue (0–28), Peak change [3, 4]: 5.9 ± 5.9
- POMS Fatigue, Peak Time [3, 4]: 6 ± 0 Hr Postdose
- POMS Tension (0–28), Peak change [3, 4]: 7.5 ± 6.1
- POMS Tension, Peak Time [3, 4]: 1 ± 0 Hr Postdose
- POMS Vigor (0–32), Peak change [3, 4]: -3.6 ± 3.4
- POMS Vigor, Peak Time [3, 4]: 6 ± 0 Hr Postdose
- Cocaine Craving (0–100), Peak change [3, 4]: 33 ± 25
- Global Intoxication (0–100), Peak change [3, 4]: 57 ± 27
- Bad Drug Effect (0–100), Peak change [3, 4]: 46 ± 31
- Good Drug Effect (0–100), Peak change [3, 4]: 66 ± 23
- Bad Drug Effect, Peak Time [3, 5]: 1.4 ± 1.9 Hr Postdose
- Cocaine Craving, Peak Time [3, 5]: 0.6 ± 0.7 Hr Postdose
- Global Intoxication, Peak Time [3, 5]: 0.6 ± 0.9 Hr Postdose
- Good Drug Effect, Peak Time [3, 5]: 1 ± 1.3 Hr Postdose
- POMS Anger, Peak Time [3, 5]: 6 ± 0 Hr Postdose
- POMS Confusion (0–20), Peak change [3, 5]: 2.7 ± 4.7
- POMS Confusion, Peak Time [3, 5]: 3 ± 0 Hr Postdose
- POMS Depression (0–64), Peak change [3, 5]: 1.5 ± 2.4
- POMS Depression, Peak Time [3, 5]: 3 ± 0 Hr Postdose
- POMS Fatigue (0–28), Peak change [3, 5]: 2.8 ± 5.3
- POMS Fatigue, Peak Time [3, 5]: 6 ± 0 Hr Postdose
- POMS Tension (0–28), Peak change [3, 5]: 4.8 ± 3.9
- POMS Tension, Peak Time [3, 5]: 1 ± 0 Hr Postdose
- POMS Vigor (0–32), Peak change [3, 5]: -3.9 ± 6.1
- POMS Vigor, Peak Time [3, 5]: 6 ± 0 Hr Postdose
- POMS Anger (0–28), Peak change ([3]; Session 2: second cocaine infusion, after one week of selegiline STS, significantly different from Session 1 (p < 0.03)): -2.1 ± 5.7
- Cocaine Craving (0–100), Peak change [3, 5]: 20 ± 21
- Global Intoxication (0–100), Peak change [3, 5]: 53 ± 23
- Bad Drug Effect (0–100), Peak change [3, 5]: 55 ± 25
- Good Drug Effect (0–100), Peak change [3, 5]: 60 ± 21
- Global intoxication, verbal ratings of craving, and good drug effect compared to baseline ([3]; both cocaine challenge sessions): increased
- Serum prolactin levels after cocaine, change within session (dopaminergic tone): numerically decreased
